SMILES strings stand for the structures. Structures can show the parent of a compound that is named as a salt.

The target in the first series is human MCH-1 receptor (Homo sapiens (Human), UniProt Q99705). As to the kind of experiment: Binding assay for human melanin-concentrating hormone (MCH1) receptor. The following applies: membranes from CHO-K1 cells expressing human MCH1 receptor; 1.4 nM [3H]-labeled radioligand, 60 min at 25° C., pH 7.4; Ki from Cheng Prusoff equation. Here is the method: Binding Assay for Human Melanin-Concentrating Hormone (MCH1) Receptor
Chain of human MCH-1 receptor (Q99705 whole entry): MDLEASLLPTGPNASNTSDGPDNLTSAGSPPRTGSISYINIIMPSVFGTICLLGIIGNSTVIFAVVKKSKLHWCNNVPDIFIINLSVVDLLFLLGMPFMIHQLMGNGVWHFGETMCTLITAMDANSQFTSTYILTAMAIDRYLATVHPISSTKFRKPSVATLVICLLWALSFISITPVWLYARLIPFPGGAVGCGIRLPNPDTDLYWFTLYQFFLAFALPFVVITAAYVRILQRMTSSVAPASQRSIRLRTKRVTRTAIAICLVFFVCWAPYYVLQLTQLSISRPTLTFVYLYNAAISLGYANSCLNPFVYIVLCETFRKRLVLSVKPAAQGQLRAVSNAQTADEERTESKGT
Evaluation of the affinity of compounds for the human MCH-1 receptor was accomplished using 4-(3,4,5-tritritiumbenzyloxy)-1-(1-(2-(pyrrolidin-1-yl)ethyl)-1H-indazol-5-yl)pyridin-2(1H)-one and membranes prepared from stable CHO-K1 cells expressing the human MCH1 receptor obtained from Euroscreen (Batch 1138). Cell membrane homogenates (8.92 μg protein) were incubated for 60 min at 25° C. with 1.4 nM of the [^3H]-labeled compound in the absence or presence of the test compound in 50 mM Tris-HCl buffer, pH 7.4. Nonspecific binding was determined in the presence of 50 μM 1-(5-(4-cyanophenyl)bicyclo[3.1.0]hexan-2-yl)-3-(4-fluoro-3-(trifluoromethyl)phenyl)-1-(3-(4-methylpiperazin-1-yl)propyl)urea. Following incubation, the samples were filtered rapidly under vacuum through Skatron 11731 filters, pre-soaked in 0.5% polyethylenimine, and washed with ice-cold 50 mM Tris-HCl buffer, pH 7.4, (wash setting 9,9,0) using a Skatron cell harvester. The filters were counted for radioactivity in a liquid scintillation counter (Tri-Carb 2100TR, Packard) using a scintillation cocktail (Ultima Gold MV, Perkin Elmer).
The results are expressed as a percent inhibition of the control radioligand specific binding. The IC50 value (concentration causing a half-maximal inhibition of control specific binding) and Hill coefficient (nH) were determined by non-linear regression analysis of the competition curve using Hill equation curve fitting. The inhibition constant (Ki) was calculated from the Cheng Prusoff equation: (Ki=IC50/(1+(L/KD)), where L=concentration of radioligand in the assay, and KD=affinity of the radioligand for the receptor.
A word on the Ki: it is a dissociation constant, usually derived from enzyme kinetics or from competition with a known ligand. A high value points to a looser hold on the target. `O=c1cc(OCc2ccc(Cl)cc2F)ccn1-c1ccc2c3c([nH]c2c1)CC1CCCN1C3` (stereo not drawn) [Example 42, 4-(4-Chloro-2-fluorobenzyloxy)-1-(2,3,5,10,11,11a-hexahydro-1H-indolizino[7,6-b]indol-8-yl)pyridin-2(1H)-one Hydrochloride] registered an inhibition constant Ki of 19 nM. Still for that read-out and setting: then `Cn1c2c(c3ccc(-n4ccc(OCc5ccc(F)cn5)cc4=O)nc31)C1CCCN1CC2` (stereo not drawn) [Example 45, 4-((5-Fluoropyridin-2-yl)methoxy)-1-(7-methyl-2,3,5,6,7,11c-hexahydro-1H-pyrido[3′,2′:4,5]pyrrolo[2,3-g]indolizin-9-yl)pyridin-2(1H)-one Hydrochloride], with 21 nM. `Cc1ccc(COc2ccn(-c3ccc4c5c(n(C)c4c3)CC3CCCN3C5)c(=O)c2)cn1` (stereo not drawn) [Example 31, 1-(10-Methyl-2,3,5,10,11,11a-hexahydro-1H-indolizino[7,6-b]indol-8-yl)-4-((6-methylpyridin-3-yl)methoxy)pyridin-2(1H)-one Hydrochloride] yielded an inhibition constant Ki of 22 nM. In turn, `Cc1ccc(COc2ccn(-c3ccc4c5c(n(C)c4c3)CC3CCCCN3C5)c(=O)c2)cn1` (stereo not drawn) [Example 33, 1-(5-Methyl-5,6,6a,7,8,9,10,12-octahydroindolo[2,3-b]quinolizin-3-yl)-4-((6-methylpyridin-3-yl)methoxy)pyridin-2(1H)-one Dihydrochloride] gave a Ki of 31 nM.

`Cn1c2c(c3ccc(-n4ccc(OCc5ccc(F)cn5)cc4=O)cc31)CCN1CCCC21` (stereo not drawn) [Example 43, 4-((5-Fluoropyridin-2-yl)methoxy)-1-(11-methyl-2,3,5,6,11,11b-hexahydro-1H-indolizino[8,7-b]indol-9-yl)pyridin-2(1H)-one Dihydrochloride] had a Ki of 26 nM. Turning to `O=c1cc(OCc2ccc(F)cn2)ccn1-c1ccc2c3c([nH]c2c1)CCN1CCCC31` (stereo not drawn) [Example 25, 4-((5-Fluoropyridin-2-yl)methoxy)-1-(2,3,5,6,7,11c-hexahydro-1H-indolizino[7,8-b]indol-9-yl)pyridin-2(1H)-one Hydrochloride], the Ki was found to be 14 nM.

`O=c1cc(OCc2ccc(F)cn2)ccn1-c1ccc2c3c([nH]c2c1)CC1CCCN1C3` (stereo not drawn) [Example 40, 4-((5-Fluoropyridin-2-yl)methoxy)-1-(2,3,5,10,11,11a-hexahydro-1H-indolizino[7,6-b]indol-8-yl)pyridin-2(1H)-one Hydrochloride] returned a Ki of 14 nM. In turn, `Cc1ccc(-c2ccn(-c3ccc4c5c(n(C)c4c3)CC3CCCCN3C5)c(=O)c2)cn1` (stereo not drawn) [Example 35, 1-(5-Methyl-5,6,6a,7,8,9,10,12-octahydroindolo[2,3-b]quinolizin-3-yl)-4-(6-methylpyridin-3-yl)pyridin-2(1H)-one Dihydrochloride] yielded an inhibition constant Ki of 193 nM. In the case of `Cc1ccc(-c2ccn(-c3ccc4c5c(n(C)c4c3)CCN3CCCC53)c(=O)c2)cn1` (stereo not drawn) [Example 15, 1-(7-Methyl-2,3,5,6,7,11c-hexahydro-1H-indolizino[7,8-b]indol-9-yl)-4-(6-methylpyridin-3-yl)pyridin-2(1H)-one Hydrochloride], the Ki was 76 nM. Regarding `Cn1c2c(c3ccc(-n4ccc(OCc5ccccc5)cc4=O)cc31)CCN1CCCCCC21` (stereo not drawn) [Example 10, 4-(Benzyloxy)-1-(13-methyl-2,3,4,5,7,8,13,13b-octahydro-1H-pyrido[1,2-a]azepino[10,9-b]indol-10-yl)pyridin-2(1H)-one Hydrochloride], the Ki is 47 nM.

With `Cc1ccc(COc2ccn(-c3ccc4c5c(n(C)c4c3)CCN3CCCC53)c(=O)c2)cn1` (stereo not drawn) [Example 20, 1-(7-Methyl-2,3,5,6,7,11c-hexahydro-1H-indolizino[7,8-b]indol-9-yl)-4-((6-methylpyridin-3-yl)methoxy)pyridin-2(1H)-one Dihydrochloride], the Ki came out at 13 nM. The compound `O=c1cc(OCc2ccccc2)ccn1-c1ccc2c3c([nH]c2c1)CCN1CCCC31` (stereo not drawn) [Example 24, 4-(Benzyloxy)-1-(2,3,5,6,7,11c-hexahydro-1H-indolizino[7,8-b]indol-9-yl)pyridin-2(1H)-one Hydrochloride] gave an inhibitory constant (Ki) of 6 nM. Take `Cn1c2c(c3ccc(-n4ccc(OCc5ccc(F)cn5)cc4=O)cc31)C1CCCCN1CC2` (stereo not drawn) [Example 21, 4-((5-Fluoropyridin-2-yl)methoxy)-1-(8-methyl-1,2,3,4,6,7,8,12c-octahydroindolo[3,2-a]quinolizin-10-yl)pyridin-2(1H)-one Hydrochloride]: affinity was put at a Ki of 8.4 nM. This Ki and that of the compound before are within 1.5-fold of each other. `Cc1ccc(COc2ccn(-c3ccc4c5c(n(C)c4c3)CCN3CCCCC53)c(=O)c2)cn1` (stereo not drawn) [Example 23, 1-(8-Methyl-1,2,3,4,6,7,8,12c-octahydroindolo[3,2-a]quinolizin-10-yl)-4-((6-methylpyridin-3-yl)methoxy)pyridin-2(1H)-one Dihydrochloride]: the Ki came to 19 nM.

Take `Cc1ccc(-c2ccn(-c3ccc4c5c(n(C)c4c3)CC3CCCN3C5)c(=O)c2)cn1` (stereo not drawn) [Example 13, 1-(10-Methyl-2,3,5,10,11,11a-hexahydro-1H-indolizino[7,6-b]indol-8-yl)-4-(6-methylpyridin-3-yl)pyridin-2(1H)-one Hydrochloride]: the Ki was determined as 59 nM.

`Cn1c2c(c3ccc(-n4ccc(OCc5ccc(F)cn5)cc4=O)cc31)C1CCCN1CC2` (stereo not drawn) [Example 19, 4-((5-Fluoropyridin-2-yl)methoxy)-1-(7-methyl-2,3,5,6,7,11c-hexahydro-1H-indolizino[7,8-b]indol-9-yl)pyridin-2(1H)-one Dihydrochloride] registered an inhibition constant (Ki) of 11 nM.

The series is the same for the next values; noted with them: membranes from CHO-K1 cells expressing human MCH1 receptor; 1.4 nM [3H]-labeled radioligand, 60 min at 25° C., pH 7.4; Ki from Cheng Prusoff equation; Dihydrochloride.
With `Cn1c2c(c3ccc(-n4ccc(OCc5ccc(F)cn5)cc4=O)cc31)CN1CCCCC1C2` (stereo not drawn) [Example 37, 4-((5-Fluoropyridin-2-yl)methoxy)-1-(5-methyl-5,6,6a,7,8,9,10,12-octahydroindolo[2,3-b]quinolizin-3-yl)pyridin-2(1H)-one Dihydrochloride], affinity was put at a Ki of 10 nM.

Tested on in a further series: not given
Assay: not given
Conditions: not given
For orientation: melting point means the temperature, or range, at which the solid turns liquid. The compound `Cn1c2c(c3ccc(-n4ccc(OCc5ccc(F)cn5)cc4=O)cc31)C1CCCCN1CC2` (stereo not drawn) (as salt: hydrochloride) [Example 21, 4-((5-Fluoropyridin-2-yl)methoxy)-1-(8-methyl-1,2,3,4,6,7,8,12c-octahydroindolo[3,2-a]quinolizin-10-yl)pyridin-2(1H)-one Hydrochloride] returned a melting point of 256 to 258 °C. Regarding `Cn1c2c(c3ccc(-n4ccc(OCc5ccc(F)cn5)cc4=O)cc31)CCN1CCCC21` (stereo not drawn) (as salt: hydrochloride) [Example 43, 4-((5-Fluoropyridin-2-yl)methoxy)-1-(11-methyl-2,3,5,6,11,11b-hexahydro-1H-indolizino[8,7-b]indol-9-yl)pyridin-2(1H)-one Dihydrochloride], the melting point was in the range of 290 to 293 °C. For `Cc1ccc(COc2ccn(-c3ccc4c5c(n(C)c4c3)CC3CCCN3C5)c(=O)c2)cn1` (stereo not drawn) (as salt: hydrochloride) [Example 31, 1-(10-Methyl-2,3,5,10,11,11a-hexahydro-1H-indolizino[7,6-b]indol-8-yl)-4-((6-methylpyridin-3-yl)methoxy)pyridin-2(1H)-one Hydrochloride], the melting point is 260 to 263 °C. For `Cc1ccc(-c2ccn(-c3ccc4c5c(n(C)c4c3)CCN3CCCC53)c(=O)c2)cn1` (stereo not drawn) (as salt: hydrochloride) [Example 15, 1-(7-Methyl-2,3,5,6,7,11c-hexahydro-1H-indolizino[7,8-b]indol-9-yl)-4-(6-methylpyridin-3-yl)pyridin-2(1H)-one Hydrochloride], the melting point lay in the range of 280 to 283 °C.

As to `Cc1ccc(-c2ccn(-c3ccc4c5c(n(C)c4c3)CC3CCCN3C5)c(=O)c2)cn1` (stereo not drawn) (as salt: hydrochloride) [Example 13, 1-(10-Methyl-2,3,5,10,11,11a-hexahydro-1H-indolizino[7,6-b]indol-8-yl)-4-(6-methylpyridin-3-yl)pyridin-2(1H)-one Hydrochloride], the melting point is 305 °C (dec.). As for `Cn1c2c(c3ccc(-n4ccc(OCc5ccc(F)cn5)cc4=O)cc31)CN1CCCCC1C2` (stereo not drawn) (as salt: hydrochloride) [Example 37, 4-((5-Fluoropyridin-2-yl)methoxy)-1-(5-methyl-5,6,6a,7,8,9,10,12-octahydroindolo[2,3-b]quinolizin-3-yl)pyridin-2(1H)-one Dihydrochloride], the melting point was 235 to 238 °C. Still for that read-out and setting: then `Cc1ccc(COc2ccn(-c3ccc4c5c(n(C)c4c3)CC3CCCCN3C5)c(=O)c2)cn1` (stereo not drawn) (as salt: hydrochloride) [Example 33, 1-(5-Methyl-5,6,6a,7,8,9,10,12-octahydroindolo[2,3-b]quinolizin-3-yl)-4-((6-methylpyridin-3-yl)methoxy)pyridin-2(1H)-one Dihydrochloride], with 270 to 272 °C.

Values taken from patent US8618299B2, “Azinone-substituted azapolycycle MCH-1 antagonists, methods of making, and use thereof” (Albany Molecular Research, Inc., priority 2009, dated 2013).
